Data from patent US10844070B2, “Peripherally restricted GABA positive allosteric modulators for the treatment of irritable bowel syndrome and other ailments of the peripheral nervous system” (The Johns Hopkins University, priority 2014, dated 2020).
“Also recorded” adds a separate entry of the source.

Tests used:
Format in all cases: in vivo
[1] = Stool composition (total stool weight, water content); conditions: stools collected for 3 hours
Method: After gavage of Compound 1 (3 and 10 mg/kg), stools were collected immediately after expulsion for 3 hours. The wet stools were weighted as total stool weight followed by dry at 65° C. for 24 hours and weight as dry stool weight. The percent of water content in the stool was calculated by (total stool weight-dry stool weight)/total stool weight x 100.

C57B/6 mice [2] = test: Whole gut transit time (WGTT), carmine red gavage; conditions: 1, 3 and 10 mg/kg by gavage in 50% propylene glycol; statistically significant at all doses
Method: Dose responses of the effect of Compound 1 on the whole gut transit time (WGTT) were examined. Compound 1 (0, 1, 3 and 10 mg/kg) in 50% propylene glycol was administrated by gavage (5 ml/kg), followed by gavage of 0.2 ml carmine red solution (6% carmine red in 0.5% methylcellulose) into C57B/6 mice. Mice were then placed in a white cardboard box and the time was recorded as time 0. The color of stool was observed every 10 min until the red dye appeared in stool. The time that first red stool appears was recorded as the ending time. The difference between the ending time and time 0 is used to present WGTT (min).

IBS mice = test: Pain sensitivity in IBS mouse model (VMR to colorectal distension)
Method: IBS visceral pain model, induced by neonatal rectal irritation. Colonic pain sensitivity to graded colorectal balloon distension (CRD, 15, 30, 50 and 70 mmHg) was determined by visceromotor response (VMR) measured by electromyography of external oblique muscle.

[3] = Measurement of brain and plasma levels by LC/MS; conditions: mice, 10 mg/kg oral gavage, after 30 minutes
Method: Compound 1 was administered to 5 mice at a dose of 10 mg/kg as a solution in 50% propylene glycol by oral gavage (5 ml/kg), After 30 minutes, mice were sacrificed and plasma and brain were harvested. The concentration of Compound 1 in plasma and brain were measured by LC/MS.

C57B/6 mice [4] = test: Distal colon transit time (DCTT), glass bead expulsion; conditions: 3 mg/kg gavage
Method: We examined the time course of Compound 1 on distal colon transit time (DCTT) in C57B/6 mice to assess the colon motility. DCTT was performed by gently pushing a 2 mm glass bead into rectal 2 cm and then placing the mouse into a white box (time 0). The time that the glass bead was released from rectal is presented as DCTT (min). Mice were gavaged with 0 or 3 mg/kg of Compound 1 and DTCC was conducted at 30, 60, 90 and 120 min after the administration of Compound 1. […] The increase in the DCTT reached a peak at 90 min and returned at 2 hours after the administration of Compound 1 (FIG. 2).

With `O=C(O)c1nc2n(n1)-c1ccc(Cl)cc1C(c1ccccc1F)=NC2` [Compound 1, 8-Chloro-6-(2-fluorophenyl)-4H-[1,2,4]triazolo[1,5-a][1,4]benzodiazepine-2-carboxylic acid] the “effect on percent of water content in the stool” value ([1]; 3 mg/kg gavage) was “not”, the “effect on total stool weight” value ([1]; 3 mg/kg gavage) was “not” and the “effect on percent of water content in the stool” value ([1]; 10 mg/kg gavage) was “significantly reduced”. The “effect on total stool weight” value ([1]; 10 mg/kg gavage) was “significantly reduced”, the “effect on whole gut transit time (WGTT)” value (C57B/6 mice [2]) was “dose-dependently increased WGTT” and the “effect on hyperalgesia (VMR to CRD)” value (IBS mice; IBS mice, 10 mg/kg, Two-Way ANOVA) was “significantly attenuated the hyperalgesia; also recorded: significantly reduced”. For the same compound, the “effect on pain sensitivity (VMR to CRD)” value (IBS mice; control mice, 10 mg/kg (data not shown)) was “no effect was observed”, the average plasma concentration [3] was 1061+189 nM and the concentration at 30 min ([3]; mouse, brain, limit of quantitation 62.5 nM) was < 62.5 nM. For the same compound, the “time at which DCTT returned after administration” value (C57B/6 mice [4]) was 2 h, the “time at which the increase in DCTT reached a peak” value (C57B/6 mice [4]) was 90 min and the “effect on distal colon transit time (DCTT)” value (C57B/6 mice [4]; as early as 30 min after gavage) was “significantly increased the DCTT”.
